# Legend:
# [1] = test system: fasting rats; assay: ulcerogenic activity in fasting rats; type: in vivo, rat
# [2] = test system: male mice; assay: acute oral toxicity in male mice; type: in vivo
# Protocol: (§1) Acute toxicity was determined orally in male mice.
# [3] = test system: cotton-induced granuloma in rat; assay: cotton-induced granuloma in rat; type: in vivo; details: male rats, oral during 7 days
# Protocol: The test is conducted according to the technique of […]. Am. Chem. Soc., 80, 3161, 1958) The male rats are distributed in randomized groups, slightly anesthetized and depilated in the dorsal area. An incision of about 1 cm is effected along the spine, and 2 pellets of carded cotton weighing each 20 mg are placed under the skin on both sides of the neck. The treatments are administered orally during 7 days, as suspensions in BT medium. The reference group is administered BT medium alone, under the same experimental conditions. 24 hours after the last ingestion, the pellets are excised and weighed.
# [4] = test system: writhing induced by intraperitoneal acetic acid in mice; assay: acetic acid writhing test in mice (analgesic activity); type: in vivo, mouse; parameters: key to Analgesic activity (writhing test): rated, according to its intensity, with from 1 + to 4 +'s, with from 1 + to 4 +'s; ++++: rated, according to its intensity, with from 1 + to 4 +'s; details: for Analgesic activity (writhing test): oral, mice, 0.5 hour prior to i.p. acetic acid, 15 minutes recording, rated + to ++++
# Protocol: The analgesic activity was determined according to the conventional testing methods for said activity: the writhing test. Mice are given a single intraperitoneal injection of 0.2 ml 6°/129 acetic acid.
# The test compound is administered orally 0.5 hour prior to the acetic acid injection. The number of characteristic writhing movements inducted by pain is recorded during the 15 minutes which follow the acetic acid injection.
# The analgesic action of the various derivatives is rated, according to its intensity, with from 1 + to 4 +'s in the following table.
# [5] = test system: hyperthermia induced in rats by subcutaneous injection of barm; assay: antipyretic activity, barm (yeast)-induced hyperthermia in rats; type: in vivo, rat; details: po, intragastric, 17 hours after yeast injection, lowest active dosage, read-out: active from a dosage of (antipyretic activity)
# Protocol: Hyperthermia is induced in rats by subcutaneous injection of barm, at a dosage of 4 g/kg.
# The treatments are administered by the intragastric route, 17 hours after yeast injection.
# The change in rectal temperature of the rats is compared, as a function of time, in the absolute reference animals, the "barm" reference animals and the treated animals.
# [6] = test system: rats; assay: chronic toxicity tests in rats; type: in vivo, rat; details: 40 mg/kg/day
# [7] = test system: carrageenin-induced edema of the rear limb of rats; assay: carrageenin-induced edema of the rear limb of rats (anti-inflammatory activity); type: in vivo, rat; parameters: Anti-inflammatory activity (carrageenin-induced edema): key to the marks not given beside the values; details: for Anti-inflammatory activity (carrageenin-induced edema): oral, rats, after 1.5 hour, rated + to ++++; for ED30 / ED40: carrageenin-induced edema in rat; for ED30: read-out: AD30; for ED40: read-out: AD40
# Excerpt: The anti-inflammatory action of the various compounds is rated, according to its intensity, with 1 + to 4 +'s in the following Table.
# 1. Carrageenin-induced edema in rat
# [8] = test system: Freund-adjuvant induced arthritis in rats; assay: Freund-adjuvant induced arthritis in rats; type: in vivo; details: Rattus norvegicus, limb volume, X-ray examination, weight curve, lowest active dosage, read-out: inhibiting activity on the development of adjuvant-induced polyarthritis, apparent from a dosage of
# Protocol: Injection of Mycobacterium butyricum is carried out at the level of the hind limb of rats, and produces as early as the 10th day an arthritis which develops rapidly.
# The inhibiting activity of the compound of Example 1 on the development of adjuvant-induced polyarthritis in rats is apparent from a dosage of 5 mg/kg.
# [9] = test system: ultra-violet induced erythema in guinea-pigs; assay: ultra-violet induced erythema in guinea-pigs; type: in vivo, guinea-pig; details: intragastric
# Protocol: Erythema is induced in depilated guinea-pigs placed at a distance of 25 cm from a 300 watt mercury vapor lamp.
# The back of the guinea-pigs is covered with a coat of flexible rubber in which 3 circular perforations 8 mm in diameter are effected. Blind evaluation of the erythema is carried out, 2 hrs and 5 hrs after irradiation.
# The treatment is administered by the intragastric route, under a volume of 5 ml/kg.
# [10] = acute oral toxicity in male mice; type: in vivo; details: mouse, in vivo, po, male mice; read-out: LD50 per os
# Protocol: as §1
SMILES,Analgesic activity (writhing test) [4],Anti-inflammatory activity (carrageenin-induced edema) [7],"ED30 ([7]; po, 1.5 h) [mg/kg]","ED40 ([7]; po, 1.5 h) [mg/kg]",LD50 [10] [mg/kg],other results
"COc1ccc(-c2nc3n(c2-c2ccc(OC)cc2)CCS3)cc1 [Example 1, 2,3-dihydro-5,6-(bis-paramethoxyphenyl)-imidazo[2,1-b]-thiazole]",++++,++++,5.22,7.78,,"ulcerogenic activity [1]: low ulcerogenic activity found in fasting rats is equivalent to that of the reference materials; LD50 per os ([2]; mouse, in vivo, po): > 4,200 mg/kg; activity relative to phenylbutazone (granuloma) [3]: twice as active as phenylbutazone; inhibition of the development of a granuloma [3]: inhibits the development of a granuloma; analgesic activity on visceral pain ([4]; acetic acid writhing test in mice, in words): highly marked analgesic activity on visceral pain; minimal effective dose [5]: 3.38 mg/kg; major side-effects (chronic toxicity) [6]: failed to provide evidence of any major side-effects; minimal effective dose ([7]; po, 1.5 h, rat, lowest active dosage, read-out: active from a dosage of (carrageenin-induced edema)): 3.38 mg/kg; minimal effective dose [8]: 5 mg/kg; protective activity, dependence on dosage (erythema) [9]: proportional to the dosage administered; protective activity still maintained ... hours after administration ([9]; duration): ≥ 6 h; protective activity highly marked as early as the first ... hours ([9]; onset): ≤ 3 h"
"COc1ccc(-c2nc3n(c2-c2ccc(OC)cc2)CC(C)S3)cc1 (centres unmarked) [Example 3, 2-methyl-2,3-dihydro-5,6-(bis-paramethoxyphenyl)-imidazo[2,1-b]-thiazole]",+++,+++,,,> 2000,
"COc1ccc(-c2nc3n(c2-c2ccc(OC)cc2)C(C)CS3)cc1 (centres unmarked) [Example 4, 3-methyl-2,3-dihydro-5,6-(bis-paramethoxyphenyl)-imidazo[2,1-b]-thiazole]",+++,,,,> 2000,
"COc1ccc(-c2nc3n(c2-c2ccc(OC)cc2)C(C)C(C)S3)cc1 (centres unmarked) [Example 7, 2,3-dimethyl-2,3-dihydro-5,6-bis(p-methoxyphenyl)-imidazo[2,1-b]-thiazole]",++++,+++,,,,
COc1ccc(-c2nc3n(c2-c2ccc(OC)cc2)CCS3)cc1 [Example 22],,,,,,"LD50 per os ([2]; oral, male mice): > 2,000 mg/kg"
"CCCCC1C(=O)N(c2ccccc2)N(c2ccccc2)C1=O [Phenylbutazone, reference compound]",,,16.1,27.4,,
